Here are results for two molecules from article PMC11840605, “Crystallographic and Thermodynamic Evidence of Negative Coupling in the Flavin-Dependent Tryptophan Halogenases AbeH and BorH” (ACS Omega, 2025).

Molecules are shown by their SMILES. Entries after “also recorded” stand apart in the source; their conditions may differ. Read-outs that look alike come from different tables or passages of the source.

In one assay the target is AbeH/Trp (uncultured bacterium, UniProt F6LWA5). The experiment in a line: Isothermal titration calorimetry, FAD into AbeH preincubated with Trp. The assay is classed as binding, uncultured soil actinomycetes. Details: n (ITC, Table S3) / DH (ΔH, ITC, Table S3) / -TDS (-TΔS, ITC, Table S3) / DG (ΔG, ITC, Table S3): unit of the concentration uncertain. As for the experimental part: (§1) ITC experiments were performed using a VP-ITC isothermal titration calorimeter (MicroCal) in 20 mM HEPES pH 7.5, 350 mM NaCl, 1 mM ethylenediamine tetraacetic acid (EDTA) and 15% (v/v) glycerol. Solutions of AbeH, BorH, FAD (Chem-Implex), and Trp (Acros Organics) were prepared in the same buffer and degassed under vacuum at 30 °C for 20 min before loading in the syringe or cell. To analyze formation of binary complexes, AbeH or BorH was placed inside the cell, and ligand (FAD or Trp) was injected. For ternary complex titration, one ligand was preincubated with the macromolecule for 30 min at 30 °C to form binary complexes of AbeH/FAD, AbeH/Trp, BorH/FAD, and BorH/Trp before titrating with the second ligand. To test FADH2 binding to AbeH and BorH, FAD was reduced to FADH2 using sodium dithionite and stored under N2. Formation of FADH2 by sodium dithionite was verified using absorbance and fluorescence spectrophotometry.
Sequence of AbeH/Trp (F6LWA5 entry or part of it): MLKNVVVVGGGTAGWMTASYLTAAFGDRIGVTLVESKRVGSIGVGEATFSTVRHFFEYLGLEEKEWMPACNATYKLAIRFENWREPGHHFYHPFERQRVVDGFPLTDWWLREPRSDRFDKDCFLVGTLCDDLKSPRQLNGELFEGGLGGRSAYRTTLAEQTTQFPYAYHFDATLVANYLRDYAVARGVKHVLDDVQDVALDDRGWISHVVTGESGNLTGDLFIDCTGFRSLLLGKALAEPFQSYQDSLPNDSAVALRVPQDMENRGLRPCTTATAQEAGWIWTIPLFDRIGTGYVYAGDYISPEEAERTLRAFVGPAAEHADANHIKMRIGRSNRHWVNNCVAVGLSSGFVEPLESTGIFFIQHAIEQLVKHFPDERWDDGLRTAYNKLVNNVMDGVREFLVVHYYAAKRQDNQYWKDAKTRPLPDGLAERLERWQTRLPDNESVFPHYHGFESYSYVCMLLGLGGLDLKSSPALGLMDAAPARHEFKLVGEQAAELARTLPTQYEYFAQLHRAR
(§2) ITC experiments were performed with reference power set to 10 μcal/s and Milli-Q water in the reference cell. All experiments were done with a pretitration delay of 20 min, a 5 min interval between injections, and a filter period of 2 s in high feedback gain mode. All experiments were performed at 310 rpm to mix the components in cell and titrant. All other VP-ITC instrumental parameters were set to default settings. Heats of dilution for all titrants were measured by titrating ligand into buffer for binary complex titrations, and by titrating ligand into a solution containing the other ligand but no protein for ternary complex titration.
190 μM FAD (2 μL/1 and 15 μL/29 injections) into 28 μM AbeH preincubated with 16 mM Trp (Figure 4C)
190 μM FAD (2 μL/1 and 15 μL/29 injections) into 28 μM AbeH preincubated with 28 mM Trp (Figure S8)
(§3) Titrations were analyzed by manually integrating each injection, subtracting the heat of dilution, and carrying out nonlinear least-squares fit of the calorimetric binding data to a one-site model using Origin 7.0 (Origin Lab). Trp binding experiments were subtracted by point-by-point heat of dilution, and FAD and FADH2 binding experiments were subtracted using the mean heat of the last three injections. For the Trp binding data, n was fixed to 1 based on expected stoichiometry of 1:1 based on FDH crystal structures and as proposed for lower c-value titrations in the literature.[23],[25],[82] The other parameters were not constrained during fitting.
(In general: ITC needs no label: the signal is the heat of the interaction.)

The target in a further assay is BorH (uncultured bacterium, UniProt M9QSI0). Kind of assay: Isothermal titration calorimetry, ligand into BorH. The format is binding, uncultured soil actinomycetes. On the procedure: as §1, with “Solutions” for “ITC experiments were performed using a VP-ITC isothermal titration calorimeter (MicroCal) in 20 mM HEPES pH 7.5, 350 mM NaCl, 1 mM ethylenediamine tetraacetic acid (EDTA) and 15% (v/v) glycerol. Solutions”
Sequence of BorH (M9QSI0 1-529): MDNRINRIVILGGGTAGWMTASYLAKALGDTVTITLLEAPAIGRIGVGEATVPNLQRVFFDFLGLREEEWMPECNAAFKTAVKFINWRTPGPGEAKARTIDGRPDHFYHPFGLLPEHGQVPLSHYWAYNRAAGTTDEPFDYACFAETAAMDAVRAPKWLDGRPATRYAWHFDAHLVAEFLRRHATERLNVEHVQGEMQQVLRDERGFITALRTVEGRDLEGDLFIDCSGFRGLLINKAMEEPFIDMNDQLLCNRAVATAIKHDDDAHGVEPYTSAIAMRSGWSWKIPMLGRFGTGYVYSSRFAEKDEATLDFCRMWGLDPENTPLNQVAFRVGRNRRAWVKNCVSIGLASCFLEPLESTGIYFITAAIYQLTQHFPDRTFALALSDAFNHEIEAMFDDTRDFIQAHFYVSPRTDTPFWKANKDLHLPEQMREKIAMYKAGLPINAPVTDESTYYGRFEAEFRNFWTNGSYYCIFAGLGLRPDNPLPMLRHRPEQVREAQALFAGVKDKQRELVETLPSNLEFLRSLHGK
as §2, §3

Assay [1] addresses T1, AbeH (uncultured bacterium, UniProt F6LWA5). The experiment in a line: Isothermal titration calorimetry, ligand into AbeH. The assay is classed as binding, uncultured soil actinomycetes. On the procedure:
as §1, §2
1.2 mM FAD (2 μL/1 and 5 μL/19 injections) into 18 μM AbeH (Figure 4A)
0.12 mM FADH2 (2 μL/1 and 15 μL/19 injections) into 7 μM AbeH in the presence of sodium dithionite (Figure 4B)
1.4 mM Trp (3 μL/1 and 10 μL/29 injections) into 43 μM AbeH (Figure S7)
16 mM Trp (2 μL/1 and 10 μL/29 injections) into 18 μM AbeH (Figure 5A)
as §3

For another assay, the target named is BorF. Conditions: read-out: KD, flavin binding to BorF; cited from earlier work.
Assay [2] addresses T1, AbeH. Kind of assay: Time-course of in vitro Trp chlorination and bromination by AbeH. The format is biochemical, uncultured soil actinomycetes. As for the experimental part: Time-course experiments were done using 1.7 μM AbeH, 3.3 μM holo-AbeF, 500 μM Trp, 2.5 mM NADH in 10 mM Na/KPO4 pH 8.2 with either 50 mM NaCl or 100 mM NaBr. Reactions were incubated for 5 min at 37 °C and NADH was added to start the reactions. Aliquots of 100 μL were quenched and analyzed by RP-HPLC at various time points. Unreacted substrate and product concentrations were calculated using peak areas and standard curves of Trp, 5-Cl-Trp, and 5-Br-Trp.
Figure S4: Time-course of in vitro Trp chlorination and bromination by AbeH.
Reaction conditions: 1.7 µM AbeH, 3.3 µM holo-AbeF, 0.5 mM Trp, 2.5 mM NADH, 10 mM Na/KPO4 pH 8.2, and either 50 mM NaCl (A) or 100 mM NaBr (B). Concentration of product formed was calculated from RP-HPLC chromatogram integrated A280 peak areas compared to standard curves of integrated peak areas of known concentrations of 5-Cl-Trp and 5-Br-Trp standards. Experiments were carried out in duplicate. (A) Time course of Trp chlorination by AbeH has chlorination specific activity of 87 µmol min-1 mg-1. (B) Time course of Trp bromination by AbeH has bromination specific activity of 34 µmol min-1 mg-1.
(1 picture or pasted object on this page, not shown here)

Setting [3] is: cell AbeH/Trp (16 (unit uncertain)).
Where [4] appears, read: cell AbeH/Trp (28 (unit uncertain)).
Setting [5] is: ITC, read-out: KD, binding to BorH, ITC.

T1 sequence (F6LWA5 entry or part of it): as the sequence (F6LWA5 entry or part of it) above

Turning to `Cc1cc2nc3c(=O)[nH]c(=O)nc-3n(C[C@H](O)[C@H](O)[C@H](O)COP(=O)(O)OP(=O)(O)OC[C@H]3O[C@@H](n4cnc5c(N)ncnc54)[C@H](O)[C@@H]3O)c2cc1C` [FAD], the Kd was 6.3 ± 2.4 µM on AbeH/Trp (Apparent KD, FAD binding to AbeH/Trp, ITC, AbeH preincubated with Trp, depends on the Trp:AbeH molar ratio); 2.1 µM on AbeH/Trp (KD, FAD into AbeH/Trp, ITC, experiment of Figure 4C, 28 μM AbeH preincubated with 16 mM Trp); 13 ± 3.3 µM on BorH (setting [5]); 1.2 ± 0.4 µM at AbeH [1] (ITC, read-out: KD, binding to AbeH, ITC); 0.1 µM on BorF. In addition, at AbeH/Trp (ITC), the “Heat of binding, titration of FAD into AbeH/Trp, in words” value is reported as “endothermic; also recorded: heat being absorbed rather than released”. Moreover, the “-TDS (-TΔS, ITC, Table S3)” value at AbeH/Trp (setting [3]) was -15.1 kcal/mol; at AbeH/Trp (setting [4]) it was -13.1 kcal/mol; at BorH (cell BorH), 4.7 kcal/mol; at AbeH [1] (cell AbeH), -3.6 kcal/mol. For the same molecule, the “DG (ΔG, ITC, Table S3)” value is -7.8 kcal/mol at AbeH/Trp (setting [3]), -7.2 kcal/mol on AbeH/Trp (setting [4]), -6.7 kcal/mol on BorH (cell BorH) and -8.2 kcal/mol at AbeH [1] (cell AbeH). In addition, the “DH (ΔH, ITC, Table S3)” value on AbeH/Trp (setting [3]) was 7.3 ± 0.4 kcal/mol; at AbeH/Trp (setting [4]) it was 5.9 ± 1.6 kcal/mol; on BorH (cell BorH), -11.4 ± 0.4 kcal/mol; at AbeH [1] (cell AbeH) it was -4.6 ± 0.4 kcal/mol. The “n (ITC, Table S3)” value is given as 0.58 ± 0.02 on AbeH/Trp (setting [3]), 0.6 ± 0.1 on AbeH/Trp (setting [4]), 1.1 ± 0.4 on BorH (cell BorH) and 0.93 ± 0.05 on AbeH [1] (cell AbeH).
`N[C@@H](Cc1c[nH]c2ccccc12)C(=O)O` [Tryptophan, L-tryptophan]: the “Specific activity of AbeH for Trp chlorination relative to Trp bromination” value on AbeH [2] is listed as “approximately 2.5 ×”. The “Specific activity of AbeH for chlorination of Trp” value on AbeH [2] (1.7 μM AbeH, 500 μM Trp, 50 mM NaCl, 37 °C) came to 87 μM min^–1 mg^–1. Moreover, the “Specific activity of AbeH for bromination of Trp” value on AbeH [2] (1.7 μM AbeH, 500 μM Trp, 100 mM NaBr, 37 °C) was 34 μM min^–1 mg^–1. For the same molecule, the “AbeH chlorination specific activity” value at AbeH [2] (Figure S4 A, 0.5 mM Trp, 50 mM NaCl) came out at 87 µmol/min/mg. Further, the “AbeH bromination specific activity” value at AbeH [2] (Figure S4 B, 0.5 mM Trp, 100 mM NaBr) is 34 µmol/min/mg. Moreover, the “Trp affinity of BorH higher than that of AbeH” value on BorH is reported as 2 fold. In addition, on BorH, the “Trp affinity of BorH lower than the FAD affinity” value is 30 ×. The Kd at BorH (setting [5]) turned out to be 430 ± 60 µM; on BorH (cell BorH, read-out: KD (ITC, Table S3)) it was 435 µM; on BorH (one-site model, n fixed to 1, read-out: KD for Trp/BorH, ITC), 400 µM; on AbeH [1] (KD (ITC, Table S3), cell AbeH) it was 833 µM; on AbeH [1] (KD for Trp/AbeH, ITC, one-site model, n fixed to 1), 800 µM. Besides, the “-TDS (-TΔS, ITC, Table S3)” value at BorH (cell BorH) is -0.5 kcal/mol; at AbeH [1] (cell AbeH), 0.4 kcal/mol. Moreover, the “DG (ΔG, ITC, Table S3)” value is -4.6 kcal/mol at BorH (cell BorH) and -4.3 kcal/mol on AbeH [1] (cell AbeH). Further, the entries for the “DH (ΔH, ITC, Table S3)” value on BorH (cell BorH) and at AbeH [1] (cell AbeH) were -4.1 ± 0.3 kcal/mol and -4.7 ± 0.4 kcal/mol, respectively. Besides, on AbeH [1], the “Trp affinity of AbeH lower than the FAD affinity” value came out at 500 ×. Further, the “Heat of binding, Trp titrated into AbeH at low molar ratios” value at AbeH [1] (Trp:AbeH molar ratios between 0-9, 1.4 mM Trp into 43 μM AbeH) is on record as “no significant heat of binding detected”.
